Experimental data as given in US7056940B2, “Insecticidal 3-(2,6-disubstituted phenyl)-5-[5-arylthien-2-yl]-1,2,4-triazoles” (Dow AgroSciences LLC, priority 2001, dated 2006).

Columns and labels:
Type in all cases: in vivo
[1] = tested on: Cabbage Looper (Trichoplusia ni); experiment: Insecticidal test for cabbage looper, treated cabbage leaf disc; parameters: key: A: 90–100; B: 80–89; C: 70–79; D: 60–69; E: 50–59; F: less than 50; G: Inactive; settings: cabbage leaf-dip, 2nd instar larvae, 5 days
Text: (§1) The compounds are useful for reducing populations of insects and mites and are useful in a method of inhibiting an insect or mite population which comprises applying to a locus of the insect or mite an effective insect- or mite-inactivating amount of a compound of formula (1). The “locus” of insects or mites is a term used herein to refer to the environment in which the insects or mites live or where their eggs are present, including the air surrounding them, the food they eat, or objects which they contact. For example, insects or mites which eat or contact edible or ornamental plants can be controlled by applying the active compound to plant parts such as the seed, seedling, or cutting which is planted, the leaves, stems, fruits, grain, or roots, or to the soil in which the roots are growing. It is contemplated that the compounds might also be useful to protect textiles, paper, stored grain, seeds, domesticated animals, buildings or human beings by applying an active compound to or near such objects. The term “inhibiting an insect or mite” refers to a decrease in the numbers of living insects or mites, or a decrease in the number of viable insect or mite eggs. The extent of reduction accomplished by a compound depends, of course, upon the application rate of the compound, the particular compound used, and the target insect or mite species. At least an inactivating amount should be used. The terms “insect-inactivating amount” and “mite-inactivating amount” are used to describe the amount, which is sufficient to cause a measurable reduction in the treated insect or mite population. Generally an amount in the range from about 1 to about 1000 ppm by weight active compound is used. For example, insects and mites which can be inhibited include, but are not limited to: • Lepidoptera—Heliothis spp., Helicoverpa spp., Spodoptera spp., Mythimna unipuncta, Agrotis ipsilon, Earias spp., Euxoa auxiliaris, Trichoplusia ni, Anticarsia gemmatalis, Rachiplusia nu, Plutella xylostella, Chilo spp., Scirpophaga incertulas, Sesamia inferens, Cnaphalocrocis medinalis, Ostrinia nubilalis, Cydia pomonella, Carposina niponensis, Adoxophyes orana, Archips argyrospilus, Pandemis heparana, Epinotia aporema, Eupoecilia ambiguella, Lobesia botrana, Polychrosis viteana, Pectinophora gossypiella, Pieris rapae, Phyllonorycter spp., Leucoptera malifoliella, Phyllocnisitis citrella • Coleoptera—Diabrotica spp., Leptinotarsa decemlineata, Oulema oryzae, Anthonomus grandis, Lissorhoptrus oryzophilus, Agriotes spp., Melanotus communis, Popillia japonica, Cyclocephala spp., Tribolium spp. • Homoptera—Aphis spp., Myzus persicae, Rhopalosiphum spp., Dysaphis plantaginea, Toxoptera spp., Macrosiphum euphorbiae, Aulacorthum solani, Sitobion avenae, Metopolophium dirhodum, Schizaphis graminum, Brachycolus noxius, Nephotettix spp., Nilaparvata lugens, Sogatella furcifera, Laodelphax striatellus, Bemisia tabaci, Trialeurodes vaporariorum, Aleurodes proletella, Aleurothrixus floccosus, Quadraspidiotus perniciosus, Unaspis yanonensis, Ceroplastes rubens, Aonidiella aurantii • Hemiptera—Lygus spp., Eurygaster maura, Nezara viridula, Piezodorus guildingi, Leptocorisa varicornis • Thysanoptera—Frankliniella occidentalis, Thrips spp., Scirtothrips dorsalis • Isoptera—Reticulitermes flavipes, Coptotermes formosanus • Orthoptera—Blattella germanica, Blatta orientalis, Gryllotalpa spp. • Diptera—Liriomyza spp., Musca domestica, Aedes spp., Culex spp., Anopheles spp. • Hymenoptera—Iridomyrmex humilis, Solenopsis spp., Monomorium pharaonis, Atta spp., Pogonomyrmex spp., Camponotus spp. • Siphonaptera—Ctenophalides spp., Pulex irritans • Acarina—Tetranychus spp., Panonychus spp., Eotetranychus carpini, Phyllocoptruta oleivora, Aculus pelekassi, Brevipalpus phoenicis, Boophilus spp., Dermacentor variabilis, Rhipicephalus sanguineus, Amblyomma americanum, Ixodes spp., Notoedres cati, Sarcoptes scabiei, Dermatophagoides spp. […]

[2] = tested on: Beet Armyworm (Spodoptera exigua); experiment: Insecticidal test for beet armyworm, treated lepidopteran diet; parameters: key: A: 90–100; B: 80–89; C: 70–79; D: 60–69; E: 50–59; F: less than 50; G: Inactive; settings: on diet surface, second-instar larvae, 5 days
Text: as §1

[3] = tested on: Cotton Aphid (Aphis gossypii); experiment: Insecticidal test for cotton aphid, spray on infested squash cotyledons; settings: 50 ppm spray, 3 days
Description: Insecticidal Test for Cotton Aphid (Aphis gossypii)
To prepare spray solutions, 1 mg of each test compound was dissolved into 1 mL of a 90:10 acetone:ethanol solvent. This 1 mL of chemical solution was added to 19 mL of water containing 0.05% Tween 20 surfactant to produce a 50 ppm spray solution.
Squash cotyledons were infested with cotton aphid (all life stages) 16–20 hours prior to application of spray solution. The solution was sprayed on both sides of each infested squash cotyledon (0.5 mL×2 each side) with a sweeping action until runoff. The plants were allowed to air dry and held for 3 days in a controlled room at 26° C. and 40% RH after which time the test was graded. Grading was by actual count using a dissecting microscope and comparison of test counts to the untreated check. Results are given in Tables 1–4 as percent control based on population reduction versus the untreated.

[4] = tested on: Sweetpotato Whitefly (Bemisia tabacia); experiment: Insecticidal test for sweetpotato whitefly, spray on cotton plants; parameters: key: A: 90–100; B: 80–89; C: 70–79; D: 60–69; E: 50–59; F: less than 50; G: Inactive; settings: 200 ppm spray, 13 days, large nymphs
Description: Insecticidal Test for Sweetpotato Whitefly (Bemisia tabacia)
Four mg of each test compound was dissolved by adding 4 mL of a 90:10 acetone:ethanol solvent mixture to the vial containing the sample compound. This solution was added to 16 mL of water containing 0.05% Tween 20 surfactant to produce 20 mL of an 200 ppm spray solution.
Five-week-old cotton plants reared in a greenhouse were stripped of all foliage except for the two uppermost true leaves that were greater than 5 cm in diameter. These plants were then placed into a laboratory colony of whiteflies for two days for oviposition by the colony females. All whiteflies were then removed from the test plants with pressurized air. The spray solution was then applied to the test plants with a hand-held syringe fitted with hollow cone nozzle. One mL spray solution was applied to each leaf top and bottom for a total of 4 mL per plant. Four replications of each test compound utilized a total of 16 mL spray solution. Plants were air dried and then placed in a holding chamber (28° C. and 60% RH) for 13 days. Compound efficacy was evaluated by counting, under an illuminated magnifying glass, the number of large nymphs (3rd–4th instar) per leaf.
Percent control based on reduction of large nymphs of a test compound compared to solution-only (no test compound) sprayed plants is reported in Tables 1–4.

[5] = tested on: Tobacco Budworm (Heliothis virescens); experiment: Insecticidal test for tobacco budworm, treated cotton cotyledon leaf disc; parameters: key: A: 90–100; B: 80–89; C: 70–79; D: 60–69; E: 50–59; F: less than 50; G: Inactive; settings: cotton cotyledon leaf-dip, 2nd instar larvae, 5 days
Text: as §1

[6] = tested on: Two-spotted Spider Mite (Tetranychus urticae); experiment: Insecticidal test for two-spotted spider mite, ovicide method; parameters: key: A: 90–100; B: 80–89; C: 70–79; D: 60–69; E: 50–59; F: less than 50; G: Inactive; settings: cotton leaf discs, 6 days
Description: Insecticidal Test for Two-spotted Spider Mite (Tetranychus urticae)
Ten adult female two-spotted spider mites were placed on eight 2.2 cm leaf discs of cotton leaf, allowed to oviposit over 24 hours, and thereafter removed. […] Discs were placed on an agar substrate and held at 24° C. and 90% RH for 6 days.

Structure (SMILES) | CL: activity at 400 ppm against cabbage looper (% control rating) [1] | BAW: activity at 400 ppm against beet armyworm (% control rating) [2] | CA: activity at 50 ppm against cotton aphid (% control rating) [3] | WF: activity at 200 ppm against whitefly (% control rating) [4] | TBW: activity at 400 ppm against tobacco budworm (% control rating) [5] | SM: activity against two-spotted spider mite (% control rating) [6]
Cn1nc(-c2c(F)cccc2Cl)nc1-c1sc(-c2ccc(Br)cc2)c(Cl)c1Cl | A (90–100) | A (90–100) | C (70–79) | E (50–59) | G | G
Cn1nc(-c2c(F)cccc2Cl)nc1-c1sc(-c2ccc(Br)cc2)cc1Cl | A (90–100) | A (90–100) | B (80–89) | G | A (90–100) | A (90–100)
Cc1cc(-c2cccc(OC(F)(F)F)c2)sc1-c1nc(-c2c(F)cccc2Cl)nn1C | A (90–100) | G | B (80–89) | F (less than 50) | G | A (90–100)
Cc1cc(-c2ccc(F)cc2)sc1-c1nc(-c2c(F)cccc2Cl)nn1C | A (90–100) | D (60–69) | B (80–89) | G | F (less than 50) | A (90–100)
Cc1cc(-c2ccc(Cl)c(F)c2)sc1-c1nc(-c2c(F)cccc2Cl)nn1C | A (90–100) | A (90–100) | A (90–100) | G | B (80–89) | A (90–100)
Cc1cc(-c2ccc(Cl)cc2F)sc1-c1nc(-c2c(F)cccc2Cl)nn1C | A (90–100) | A (90–100) | C (70–79) | G | F (less than 50) | A (90–100)
Cc1cc(-c2cccc(C(F)(F)F)c2F)sc1-c1nc(-c2c(F)cccc2Cl)nn1C | A (90–100) | A (90–100) | D (60–69) | G | D (60–69) | A (90–100)
Cc1cc(-c2ccc3c(c2)COC3)sc1-c1nc(-c2c(F)cccc2Cl)nn1C | A (90–100) | B (80–89) | D (60–69) | G | G | C (70–79)
COCCOc1cccc(-c2cc(C)c(-c3nc(-c4c(F)cccc4Cl)nn3C)s2)c1 | G | F (less than 50) | B (80–89) | G | F (less than 50) | C (70–79)
Cc1cc(-c2ccc(OC(C)C)cc2)sc1-c1nc(-c2c(F)cccc2Cl)nn1C | B (80–89) | D (60–69) | D (60–69) |  | G | A (90–100)
Cc1cc(-c2ccc(OC(F)(F)C(F)Cl)cc2)sc1-c1nc(-c2c(F)cccc2Cl)nn1C (centres unmarked) | A (90–100) | A (90–100) | D (60–69) | F (less than 50) | A (90–100) | A (90–100)
Cc1c(-c2nc(-c3c(F)cccc3Cl)nn2C)csc1-c1ccc(SCF)cc1 | G | B (80–89) | B (80–89) | F (less than 50) | G | 
Cc1sc(-c2ccc(C(F)(F)F)cc2F)c(C)c1-c1nc(-c2c(F)cccc2Cl)nn1C | A (90–100) | A (90–100) | B (80–89) |  | G | 
